# Test results from ChEMBL document CHEMBL1125324, “Development of a novel class of cyclic hexapeptide oxytocin antagonists based on a natural product” (J Med Chem, 1992).
# *1 amine or outer side, *2 acyl side, *3 side chain or, on linkers, in order; H or OH if unused. Where a SMILES comes first, the peptide text is derived from it. [ ]: non-standard residue; d: D form. X1 = C=CCN([C@H](Cc1ccccc1)C(=O)[*:2])[*:1]; Piz(1,6-dehydro) = O=C(O)[C@@H]1CCC=NN1; dPiz(1,6-dehydro) = O=C(O)[C@H]1CCC=NN1; d1Nal = N[C@H](Cc1cccc2ccccc12)C(=O)O; d2Nal = N[C@H](Cc1ccc2ccccc2c1)C(=O)O; dNMeH = CN[C@H](Cc1c[nH]cn1)C(=O)O; dNMeF = CN[C@H](Cc1ccccc1)C(=O)O; Pip = O=C(O)[C@@H]1CCCCN1; dPip = O=C(O)[C@H]1CCCCN1; NMeA = CN[C@@H](C)C(=O)O; Nle = CCCC[C@H](N)C(=O)O; Orn = NCCC[C@H](N)C(=O)O; dNMeA = CN[C@H](C)C(=O)O
# Key:
# Oxytocin receptor = molecular target: T1, Oxytocin receptor (Rattus norvegicus, UniProt P70536); assay: Concentration required to displace 50% of [3H]oxytocin from rat uterine receptor.
# T1 sequence (P70536 whole entry): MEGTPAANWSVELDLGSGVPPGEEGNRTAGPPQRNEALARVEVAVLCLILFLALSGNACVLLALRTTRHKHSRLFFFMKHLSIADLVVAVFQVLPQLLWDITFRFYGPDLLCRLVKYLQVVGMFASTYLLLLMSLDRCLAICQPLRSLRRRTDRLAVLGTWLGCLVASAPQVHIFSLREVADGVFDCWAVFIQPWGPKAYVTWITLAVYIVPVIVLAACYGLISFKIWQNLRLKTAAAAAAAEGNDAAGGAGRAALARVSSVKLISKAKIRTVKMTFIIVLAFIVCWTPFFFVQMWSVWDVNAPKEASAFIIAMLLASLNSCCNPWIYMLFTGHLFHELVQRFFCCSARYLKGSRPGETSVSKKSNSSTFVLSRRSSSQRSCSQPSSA
# Vasopressin V1a receptor = Vasopressin V1a receptor (Rattus norvegicus, UniProt P30560); assay: Concentration required to displace 50% of [3H]arginine vasopressin from rat liver arginine vasopressin 1A (AVP-V1a) site.
# Sequence of Vasopressin V1a receptor (P30560 whole entry): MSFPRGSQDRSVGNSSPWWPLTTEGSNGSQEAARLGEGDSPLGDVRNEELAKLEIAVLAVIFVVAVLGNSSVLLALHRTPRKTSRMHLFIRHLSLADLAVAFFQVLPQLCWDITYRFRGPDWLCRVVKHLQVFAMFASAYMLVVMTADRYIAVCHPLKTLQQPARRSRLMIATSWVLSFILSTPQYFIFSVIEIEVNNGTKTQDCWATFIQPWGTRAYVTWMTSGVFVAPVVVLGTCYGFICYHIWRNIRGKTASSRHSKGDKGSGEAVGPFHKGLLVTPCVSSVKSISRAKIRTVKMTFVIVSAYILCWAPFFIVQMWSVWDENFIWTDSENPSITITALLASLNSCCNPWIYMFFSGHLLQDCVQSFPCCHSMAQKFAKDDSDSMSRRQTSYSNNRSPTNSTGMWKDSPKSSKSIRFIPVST
# Vasopressin V2 receptor = Vasopressin V2 receptor (Rattus norvegicus, UniProt Q00788); assay: Inhibition of [3H]arginine vasopressin binding to AVP-V2 site in rat kidney medulla.; format: tissue-based
# Sequence of Vasopressin V2 receptor (Q00788 whole entry): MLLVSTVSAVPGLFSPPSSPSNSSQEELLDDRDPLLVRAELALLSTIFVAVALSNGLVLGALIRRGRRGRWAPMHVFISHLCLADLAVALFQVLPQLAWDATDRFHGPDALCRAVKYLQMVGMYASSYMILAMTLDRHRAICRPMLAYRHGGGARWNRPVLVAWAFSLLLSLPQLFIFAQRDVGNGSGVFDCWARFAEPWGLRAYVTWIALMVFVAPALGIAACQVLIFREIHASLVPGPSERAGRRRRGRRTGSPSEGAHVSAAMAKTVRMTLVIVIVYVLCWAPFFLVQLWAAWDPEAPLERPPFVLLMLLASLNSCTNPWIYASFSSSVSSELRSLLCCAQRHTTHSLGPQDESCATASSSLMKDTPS
# [1] = molecular target: Vasopressin V2 receptor (Rattus norvegicus) (UniProt Q00788); assay: Displacement of [3H]arginine vasopressin from rat kidney medullary (AVP-V2 site) at 10 uM; format: tissue-based
# Sequence of Vasopressin V2 receptor (Rattus norvegicus) (Q00788 whole entry): as above
# [2] = molecular target: Vasopressin V1a receptor (Rattus norvegicus) (UniProt P30560); assay: Displacement of [3H]arginine vasopressin from rat liver (AVP-V1a site) at 10 uM
# Sequence of Vasopressin V1a receptor (Rattus norvegicus) (P30560 whole entry, looked up): as the sequence (P30560 whole entry) above
# [3] = Aqueous solubility was determined; format: physicochemical
# Rattus norvegicus = assay: Dose required for 50% reduction of the contractile response of the uterus to OT (1 ug/kg, iv bolus) in DES-pretreated rats; format: functional
IC50 (Oxytocin receptor),IC50 (Vasopressin V1a receptor),IC50 (Vasopressin V2 receptor),inhibition [1],inhibition [2],SMILES,further results
2.7 µM,–,–,–,–,CC[C@H](C)[C@@H]1NC(=O)[C@@H](Cc2ccccc2)NC(=O)[C@@H]2CCCN2C(=O)[C@@H](Cc2ccccc2)N(C)C(=O)[C@H](C)N(C)C(=O)[C@H]2CCCCN2C1=O,–
0.01 µM,3.7 µM,1.3 µM,–,–,CC[C@H](C)[C@@H]1NC(=O)[C@@H](Cc2cn(C)c3ccccc23)NC(=O)[C@@H]2CCCN2C(=O)[C@@H](Cc2cnc[nH]2)NC(=O)[C@@H]2CCCCN2C(=O)[C@H]2CCCCN2C1=O,–
30 µM,–,–,–,–,C[C@@H]1NC(=O)[C@@H](Cc2ccccc2)NC(=O)[C@@H]2CCCN2C(=O)[C@@H](Cc2ccccc2)N(C)C(=O)[C@@H]2CCCCN2C(=O)[C@H]2CCCCN2C1=O,–
25 µM,–,–,19%,18%,CC[C@H](C)[C@H]1C(=O)N2CCCC[C@@H]2C(=O)N2CCCC[C@H]2C(=O)N(C)[C@H](Cc2ccccc2)C(=O)N2CCC[C@H]2C(=O)N[C@H](Cc2ccccc2)C(=O)N1C,–
0.16 µM,2 µM,1.4 µM,–,–,CC[C@H](C)[C@@H]1NC(=O)[C@@H](Cc2ccccc2)NC(=O)[C@@H]2CCCN2C(=O)[C@@H](Cc2ccccc2)N(C)C(=O)[C@H](CCCCN)NC(=O)[C@H]2CCCCN2C1=O,–
0.67 µM,–,–,39%,33%,CC[C@H](C)[C@@H]1NC(=O)[C@@H](Cc2ccccc2)NC(=O)[C@@H]2CCCN2C(=O)[C@@H](Cc2ccccc2)N(C)C(=O)[C@@H]2CCCN2C(=O)[C@H]2CCCCN2C1=O,–
0.22 µM,–,–,–,–,CC[C@H](C)[C@@H]1NC(=O)[C@@H](Cc2ccccc2)NC(=O)[C@@H]2CCCN2C(=O)[C@@H](Cc2ccccc2)N(C)C(=O)[C@H](Cc2cnc[nH]2)NC(=O)[C@H]2CCCCN2C1=O,–
0.045 µM,0.51 µM,0.15 µM,–,–,CC[C@H](C)[C@@H]1NC(=O)[C@@H](Cc2cccc3ccccc23)NC(=O)[C@@H]2CCCN2C(=O)[C@@H](Cc2ccccc2)N(C)C(=O)[C@H](CCCCN)NC(=O)[C@H]2CCCCN2C1=O,–
–,–,–,48%,51%,CC[C@H](C)[C@@H]1NC(=O)[C@@H](Cc2ccccc2)NC(=O)[C@@H]2CCCCN2C(=O)[C@@H](Cc2ccccc2)N(C)C(=O)[C@@H]2CCCCN2C(=O)[C@H]2CCCCN2C1=O,–
–,–,–,65%,66%,CC[C@H](C)[C@@H]1NC(=O)[C@@H](Cc2ccccc2)NC(=O)[C@@H]2CCCN2C(=O)[C@@H](Cc2ccccc2)N(C)C(=O)[C@H](Cc2c[nH]cn2)NC(=O)[C@H]2CCCCN2C1=O,–
–,–,–,34%,25%,CC[C@H](C)[C@@H]1NC(=O)[C@@H](Cc2ccccc2)NC(=O)[C@@H]2CCCN2C(=O)[C@H](Cc2ccccc2)N(C)C(=O)[C@H](C)N(C)C(=O)[C@H]2CCCCN2C1=O,–
–,–,–,2%,3%,C[C@@H]1NC(=O)[C@@H](Cc2ccccc2)NC(=O)[C@@H]2CCCN2C(=O)[C@H](Cc2ccccc2)N(C)C(=O)[C@@H]2CCCCN2C(=O)[C@H]2CCCCN2C1=O,–
1.5 µM,–,–,12%,0%,CC[C@H](C)[C@@H]1NC(=O)[C@@H](Cc2ccccc2)NC(=O)[C@@H]2CCCN2C(=O)[C@@H](Cc2ccccc2)N(C)C(=O)[C@H](CC(=O)O)NC(=O)[C@H]2CCCCN2C1=O (cyclo(D[dNMeF]P[dF]I[dPip])),–
1.5 µM,–,–,17%,20%,CC[C@H](C)[C@@H]1NC(=O)[C@@H](Cc2ccccc2)NC(=O)[C@@H]2CCCN2C(=O)[C@@H](Cc2ccccc2)N(C)C(=O)[C@@H]2CCCCN2C(=O)[C@@H](C)N(C)C1=O (cyclo(I[dNMeA][Pip][dNMeF]P[dF])),–
0.54 µM,–,–,43%,23%,CC[C@H](C)[C@@H]1NC(=O)[C@@H](Cc2ccccc2)NC(=O)[C@@H]2CCCN2C(=O)[C@@H](Cc2ccccc2)N(C)C(=O)[C@@H]2CCCCN2C(=O)[C@H]2CCCN2C1=O (cyclo(I[dP][Pip][dNMeF]P[dF])),–
0.013 µM,1.3 µM,0.11 µM,–,–,CC[C@H](C)[C@@H]1NC(=O)[C@@H](Cc2ccc3ccccc3c2)NC(=O)[C@@H]2CCCN2C(=O)[C@@H](Cc2ccccc2)N(C)C(=O)[C@H](CCCCN)NC(=O)[C@H]2CCCCN2C1=O (cyclo(I[dPip]K[dNMeF]P[d2Nal])),solubility [3]: 1700 µg/mL
0.19 µM,–,–,77%,45%,C=CCN1C(=O)[C@@H]2CCCCN2C(=O)[C@H]2CCCCN2C(=O)[C@H]([C@@H](C)CC)NC(=O)[C@@H](Cc2ccccc2)NC(=O)[C@@H]2CCCN2C(=O)[C@H]1Cc1ccccc1 (cyclo(I[dPip][Pip][X1]P[dF])),–
0.34 µM,–,11 µM,–,–,CC[C@H](C)[C@@H]1NC(=O)[C@@H](Cc2ccccc2)NC(=O)[C@@H]2CCCN2C(=O)[C@@H](Cc2ccccc2)NC(=O)[C@@H]2CCCCN2C(=O)[C@H]2CCCCN2C1=O (cyclo(I[dPip][Pip][dF]P[dF])),–
0.0083 µM,0.75 µM,0.72 µM,–,–,CC[C@H](C)[C@@H]1NC(=O)[C@@H](Cc2cccc3ccccc23)NC(=O)[C@@H]2CCCN2C(=O)[C@@H](Cc2cnc[nH]2)NC(=O)[C@@H]2CCCCN2C(=O)[C@H]2CCCCN2C1=O (cyclo(I[dPip][Pip][dH]P[d1Nal])),–
–,–,–,–,–,CC[C@H](C)[C@@H]1NC(=O)[C@@H](Cc2c[nH]c3ccccc23)NC(=O)[C@@H]2CCCN2C(=O)[C@@H](Cc2c[nH]cn2)NC(=O)[C@@H]2CCCCN2C(=O)[C@H]2CCCCN2C1=O (cyclo(I[dPip][Pip][dH]P[dW])),AD50 (Rattus norvegicus): 1.3 µg/kg
1.2 µM,–,–,12%,20%,CC[C@H](C)[C@@H]1NC(=O)[C@@H](Cc2ccccc2)NC(=O)[C@@H]2CCCN2C(=O)[C@@H](C)N(C)C(=O)[C@@H]2CCCCN2C(=O)[C@H]2CCCCN2C1=O (cyclo(I[dPip][Pip][dNMeA]P[dF])),–
0.93 µM,–,–,37%,34%,CC[C@H](C)[C@@H]1NC(=O)[C@@H](Cc2ccccc2)NC(=O)[C@H](C)N(C)C(=O)[C@@H](Cc2ccccc2)N(C)C(=O)[C@@H]2CCCCN2C(=O)[C@H]2CCCCN2C1=O (cyclo(I[dPip][Pip][dNMeF][NMeA][dF])),–
–,14 µM,–,–,–,CC[C@H](C)[C@@H]1NC(=O)[C@@H](Cc2c[nH]c3ccccc23)NC(=O)[C@@H]2CCCN2C(=O)[C@@H](Cc2c[nH]cn2)N(C)C(=O)[C@@H]2CCCCN2C(=O)[C@H]2CCCCN2C1=O (cyclo(I[dPip][Pip][dNMeH]P[dW])),–
0.025 µM,–,–,–,–,"CC[C@H](C)[C@@H]1NC(=O)[C@@H](Cc2c[nH]c3ccccc23)NC(=O)[C@@H]2CCCN2C(=O)[C@@H](Cc2ccccc2)N(C)C(=O)[C@H](CCCN)NC(=O)[C@H]2CCC=NN2C1=O (cyclo(I[dPiz(1,6-dehydro)][Orn][dNMeF]P[dW]))",–
0.015 µM,3.5 µM,1.2 µM,–,–,"CC[C@H](C)[C@@H]1NC(=O)[C@@H](Cc2ccccc2)NC(=O)[C@@H]2CCCN2C(=O)[C@@H](Cc2ccccc2)N(C)C(=O)[C@@H]2CCCCN2C(=O)[C@H]2CCC=NN2C1=O (cyclo(I[dPiz(1,6-dehydro)][Pip][dNMeF]P[dF]))",–
0.018 µM,–,–,–,–,"CC[C@H](C)[C@@H]1NC(=O)[C@@H](Cc2ccccc2)NC(=O)[C@@H]2CCCN2C(=O)[C@@H](Cc2ccccc2)N(C)C(=O)[C@@H]2CCC=NN2C(=O)[C@H]2CCC=NN2C1=O (cyclo(I[dPiz(1,6-dehydro)][Piz(1,6-dehydro)][dNMeF]P[dF]))",–
–,3 µM,11 µM,–,–,CC(C)C[C@@H]1NC(=O)[C@@H](Cc2c[nH]c3ccccc23)NC(=O)[C@@H]2CCCN2C(=O)[C@@H](Cc2c[nH]cn2)NC(=O)[C@@H]2CCCCN2C(=O)[C@H]2CCCCN2C1=O (cyclo(L[dPip][Pip][dH]P[dW])),–
–,1.3 µM,1.7 µM,–,–,CCCC[C@@H]1NC(=O)[C@@H](Cc2c[nH]c3ccccc23)NC(=O)[C@@H]2CCCN2C(=O)[C@@H](Cc2c[nH]cn2)NC(=O)[C@@H]2CCCCN2C(=O)[C@H]2CCCCN2C1=O (cyclo([Nle][dPip][Pip][dH]P[dW])),–
–,3.3 µM,81 µM,–,–,CC[C@H](C)[C@@H]1NC(=O)[C@@H](Cc2ccccc2)NC(=O)[C@@H]2CCCN2C(=O)[C@@H](Cc2ccccc2)N(C)C(=O)[C@@H]2CCCN2C(=O)[C@H]2CCCN2C1=O (cyclo([dNMeF]P[dF]I[dP]P)),–

SMILES,IC50 (Oxytocin receptor),IC50 (Vasopressin V1a receptor),IC50 (Vasopressin V2 receptor),inhibition [1],inhibition [2],further results
CC[C@H](C)[C@@H]1NC(=O)[C@@H](Cc2ccccc2)NC(=O)[C@@H]2CCCN2C(=O)[C@@H](CCCCN)NC(=O)[C@@H]2CCCCN2C(=O)[C@H]2CCCCN2C1=O (cyclo(I[dPip][Pip][dK]P[dF])),0.41 µM,1.1 µM,7.4 µM,–,–,–
CC[C@H](C)[C@@H]1NC(=O)[C@@H](Cc2ccccc2)NC(=O)[C@@H]2CCCN2C(=O)[C@@H](Cc2ccccc2)N(C)C(=O)[C@@H]2CCCCN2C(=O)[C@H]2CCCCN2C1=O (cyclo(I[dPip][Pip][dNMeF]P[dF])),0.2 µM,3.2 µM,3.8 µM,–,–,–
